According to ChEMBL document CHEMBL5321279 (J Med Chem, 2023):
In brackets after ≈: the same amount, converted by molar mass.

Key:
[1] = Lipophilicity, logD of compound; type: physicochemical; settings: octanol/water
[2] = Apparent permeability of the compound from apical to basolateral side in human Caco-2 cells incubated for 2 hrs by LC-MS/MS analysis; type: ADME, cell-based; settings: for Papp A→B at 2 h: Caco-2
[3] = Efflux ratio of permeability in human Caco-2 cells from basolateral to apical side over apical to basolateral side in human Caco-2 cells incubated for 2 hrs by LC-MS/MS analysis; type: ADME, cell-based; settings: caco-2, 2 h
[4] = Thermodynamic aqueous solubility at pH 2 measured at 72 hrs by UPLC analysis; type: physicochemical; settings: aqueous solution, read-out: Therm_solubility
[5] = Thermodynamic aqueous solubility at pH 7 measured at 24 hrs by UPLC analysis; type: physicochemical; settings: aqueous solution, read-out: Therm_solubility
[6] = Aqueous stability of the compound assessed as compound remaining at pH 2 measured at 24 hrs by UPLC analysis; type: physicochemical; settings: aqueous solution, read-out: Stability
[7] = Aqueous stability of the compound assessed as compound remaining at pH 7 measured at 24 hrs by UPLC analysis; type: physicochemical; settings: aqueous solution, read-out: Stability
[8] = Stability of compound in rat gastrointestinal S9 fraction assessed as half life at pH 7.4 measured upto 120 mins by LC-MS/MS analysis; type: ADME, subcellular, Gastrointestinal tract
[9] = Stability of compound in dog gastrointestinal S9 fraction assessed as half life at pH 7.4 measured upto 120 mins by LC-MS/MS analysis; type: ADME, subcellular, Canis lupus familiaris, Gastrointestinal tract
[10] = Stability of compound in cynomolgus monkey gastrointestinal S9 fraction assessed as half life at pH 7.4 measured upto 120 mins by LC-MS/MS analysis; type: ADME, subcellular, Macaca fascicularis, Gastrointestinal tract
[11] = Stability of compound in human gastrointestinal S9 fraction assessed as half life at pH 7.4 measured upto 120 mins by LC-MS/MS analysis; type: ADME, subcellular, Gastrointestinal tract
[12] = Stability of compound in rat plasma assessed as half life measured upto 4 hrs by LC-MS/MS analysis; type: ADME, cell-free
[13] = Stability of compound in dog plasma assessed as half life measured upto 4 hrs by LC-MS/MS analysis; type: ADME, cell-free, Canis lupus familiaris
[14] = Stability of compound in cynomolgus monkey plasma assessed as half life measured upto 4 hrs by LC-MS/MS analysis; type: ADME, cell-free, Macaca fascicularis
[15] = Stability of compound in human plasma assessed as half life measured upto 4 hrs by LC-MS/MS analysis; type: ADME, cell-free
[16] = Stability of compound in rat liver S9 fraction assessed as half life at pH 7.4 measured upto 90 mins by LC-MS/MS analysis; type: ADME, subcellular
[17] = Stability of compound in dog liver S9 fraction assessed as half life at pH 7.4 measured upto 90 mins by LC-MS/MS analysis; type: ADME, subcellular, Canis lupus familiaris
[18] = Stability of compound in cynomolgus monkey liver S9 fraction assessed as half life at pH 7.4 measured upto 90 mins by LC-MS/MS analysis; type: ADME, subcellular, Macaca fascicularis
[19] = Stability of compound in human liver S9 fraction assessed as half life at pH 7.4 measured upto 90 mins by LC-MS/MS analysis; type: ADME, subcellular
[20] = Cmax in ferret infected with SARS-CoV-2 assessed as prodrug conversion by measuring (2R,3R,4S,5R)-2-(4-aminopyrrolo[2,1-f][1,2,4]triazin-7-yl)-3,4-dihydroxy-5-(hydroxymethyl)tetrahydrofuran-2-carbonitrile at 10 mg/kg, po BID measured after 4 days by LC-MS/MS analysis; type: ADME, organism-based, Mustela putorius furo; parameters: time 4 day, dose 10 mg/kg, route po; settings: in vivo, 96 h
[21] = AUC(0 to 24 hrs) in ferret infected with SARS-CoV-2 assessed as prodrug conversion by measuring (2R,3R,4S,5R)-2-(4-aminopyrrolo[2,1-f][1,2,4]triazin-7-yl)-3,4-dihydroxy-5-(hydroxymethyl)tetrahydrofuran-2-carbonitrile at 10 mg/kg, po BID measured after 4 days by LC-MS/MS analysis; type: ADME, organism-based, Mustela putorius furo; parameters: dose 10 mg/kg, time 4 day, route po; settings: in vivo, 96 h
[22] = Prodrug conversion in SARS-CoV-2 infected in ferret assessed as (2R,3R,4S,5R)-2-(4-aminopyrrolo[2,1-f][1,2,4]triazin-7-yl)-3,4-dihydroxy-5-(hydroxymethyl)tetrahydrofuran-2-carbonitrile mediated log10 reduction of genomic RNA at 10 mg/kg, po BID measured after 4 days by RT-qPCR analysis; type: ADME, organism-based, Mustela putorius furo; settings: in vivo, 96 h, time 4 day
[23] = Cmax in mouse infected with SARS-CoV-2 assessed as prodrug conversion by measuring (2R,3R,4S,5R)-2-(4-aminopyrrolo[2,1-f][1,2,4]triazin-7-yl)-3,4-dihydroxy-5-(hydroxymethyl)tetrahydrofuran-2-carbonitrile at 30 mg/kg, po BID measured after 4 days by LC-MS/MS analysis; type: ADME, organism-based; parameters: dose 30 mg/kg, time 4 day, route po; settings: in vivo, 96 h
[24] = AUC(0 to 24 hrs) in SARS-CoV-2 infected mouse assessed as prodrug conversion (2R,3R,4S,5R)-2-(4-aminopyrrolo[2,1-f][1,2,4]triazin-7-yl)-3,4-dihydroxy-5-(hydroxymethyl)tetrahydrofuran-2-carbonitrile at 30 mg/kg, po BID measured after 4 days by LC-MS/MS analysis; type: ADME, organism-based; parameters: dose 30 mg/kg, time 4 day, route po; settings: in vivo, 96 h
[25] = Prodrug conversion in SARS-CoV-2 infected in mouse assessed as (2R,3R,4S,5R)-2-(4-aminopyrrolo[2,1-f][1,2,4]triazin-7-yl)-3,4-dihydroxy-5-(hydroxymethyl)tetrahydrofuran-2-carbonitrile mediated log10 reduction of genomic RNA in lung at 30 mg/kg, po BID measured after 4 days by RT-qPCR analysis; type: ADME, organism-based; settings: in vivo, 96 h, time 4 day
[26] = Lipophilicity, logP of compound; type: physicochemical; settings: octanol/water
MT4 = assay: Cytotoxicity against human MT4 cells assessed as reduction in cell growth measured after 5 days by CellTiter-Glo assay; type: toxicity, cell-based; settings: mt4, 120 h, time 5 day
PC-3 = assay: Cytotoxicity against human PC-3 cells assessed as reduction in cell growth measured after 5 days by CellTiter-Glo assay; type: toxicity, cell-based; settings: pc-3, 120 h, time 5 day
HepG2 = assay: Cytotoxicity against human HepG2 cells assessed as reduction in cell growth measured after 5 days by CellTiter-Glo assay; type: toxicity, cell-based; settings: hepg2, 120 h, time 5 day
Huh-7 = assay: Cytotoxicity against human Huh-7 cells assessed as reduction in cell growth measured after 5 days by CellTiter-Glo assay; type: toxicity, cell-based; settings: huh-7, 120 h, time 5 day
MRC5 = assay: Cytotoxicity against human MRC5 cells assessed as reduction in cell growth measured after 5 days by CellTiter-Glo assay; type: toxicity, cell-based; settings: mrc5, 120 h, time 5 day
[27] = Cytotoxicity against human NHBE-T cells assessed as reduction in cell growth measured after 5 days by CellTiter-Glo assay; type: toxicity, cell-based; settings: nhbe-t, 120 h, time 5 day
PBMC [28] = assay: Cytotoxicity against quiescent human PBMC cells assessed as reduction in cell growth measured after 5 days by CellTiter-Glo assay; type: toxicity, cell-based; settings: pbmc, 120 h, time 5 day
PBMC [29] = assay: Cytotoxicity against stimulated human PBMC cells assessed as reduction in cell growth measured after 5 days by CellTiter-Glo assay; type: toxicity, cell-based; settings: pbmc, 120 h, time 5 day
Hepatocyte = assay: Cytotoxicity against human primary hepatocytes assessed as reduction in cell growth measured after 5 days by CellTiter-Glo assay; type: toxicity, cell-based; settings: hepatocytes, 120 h, time 5 day

| Compound | logD [1] | Papp A→B at 2 h [2] | Ratio [3] | solubility thermodynamic at 72 h [4] | solubility thermodynamic at 24 h [5] | remaining at 24 h [6] | remaining at 24 h [7] | half-life [8] | half-life [9] | half-life [10] | half-life [11] | half-life [12] | half-life [13] | half-life [14] | half-life [15] | half-life at […] [16] | half-life at […] [17] | half-life at […] [18] | half-life at […] [19] | also measured |
| --- | --- | --- | --- | --- | --- | --- | --- | --- | --- | --- | --- | --- | --- | --- | --- | --- | --- | --- | --- | --- |
| CC(=O)OC[C@H]1O[C@@](C#N)(c2ccc3c(N)ncnn23)[C@H](OC(C)=O)[C@@H]1OC(C)=O | 1.5 | 4 ×10⁻⁶ cm/s | 3 | ≥ 40000 µg/mL | 1400 µg/mL (≈ 3.35 mM) | 82% | 79% | > 2 min | 16 min | < 2 min | < 2 min | < 2 min | 111 min | 9.2 min | 4.7 min | < 2 min | < 2 min | < 2 min | < 2 min |  |
| CC(C)C(=O)OC[C@H]1O[C@@](C#N)(c2ccc3c(N)ncnn23)[C@H](OC(=O)C(C)C)[C@@H]1OC(=O)C(C)C | 3.5 |  | < 1 | 600 µg/mL (≈ 1.2 mM) | < 10 µg/mL | ≥ 96% | ≥ 98% | > 2 min | < 2 min | < 2 min | < 2 min | < 2 min | 182 min | 7.2 min | 5.5 min | 2.9 min | < 2 min | < 2 min | < 2 min | Papp ([2]; caco-2, 2 h): 22 10^-6 cm/s; Cmax [20]: 5 µM; AUC [21]: 54 µM·h; log(activity) [22]: -1.98; Cmax [23]: 13 µM; AUC [24]: 95 µM·h; log(activity) [25]: -3.29 |
| CC(=O)OC[C@H]1O[C@@](C#N)(c2ccc3c(N)ncnn23)[C@H](O)[C@@H]1O | < 0.3 | 1.4 ×10⁻⁶ cm/s | 0.5 |  | 1000 µg/mL (≈ 3 mM) | 89% | 96% | > 2 min | 226 min | 38 min | 28 min | 3 min | 564 min | 146 min | 70 min | 10 min | 25 min | 5.3 min | 19 min |  |
| [N-]=[N+]=N[C@]1(CO)O[C@@H](n2ccc(N)nc2=O)[C@H](O)[C@@H]1O [4'-AZIDOCYTIDINE] |  |  |  |  |  |  |  |  |  |  |  |  |  |  |  |  |  |  |  | logP [26]: > 2 |
| COc1ccc(C[C@H](N)C(=O)N[C@H]2[C@@H](O)[C@H](n3cnc4c(N(C)C)ncnc43)O[C@@H]2CO)cc1 [PUROMYCIN] |  |  |  |  |  |  |  |  |  |  |  |  |  |  |  |  |  |  |  | CC50 (MT4): 120 nM; CC50 (PC-3): 470 nM; CC50 (HepG2): 780 nM; CC50 (Huh-7): 430 nM; CC50 (MRC5): 320 nM; CC50 [27]: 600 nM; CC50 (PBMC [28]): 5050 nM; CC50 (PBMC [29]): 1100 nM; CC50 (Hepatocyte): 1100 nM |
